# From ChEMBL document CHEMBL4229532, “A series of camptothecin prodrugs exhibit HDAC inhibition activity” (Bioorg Med Chem, 2018)
# Activity calls are given as the source filed them. The calls are words filed in the database; no cut-off is given here.
# Target: Histone deacetylase 3 (Homo sapiens, UniProt O15379)
# Assay: Inhibition of recombinant human HDAC3 expressed in baculovirus infected High5 insect cells using Ac-Lys-Tyr-Lys(epsilon-acetyl)-AMC as substrate after 24 hrs by fluorescence assay
# Conditions: not given
# Chain of Histone deacetylase 3 (O15379 whole entry): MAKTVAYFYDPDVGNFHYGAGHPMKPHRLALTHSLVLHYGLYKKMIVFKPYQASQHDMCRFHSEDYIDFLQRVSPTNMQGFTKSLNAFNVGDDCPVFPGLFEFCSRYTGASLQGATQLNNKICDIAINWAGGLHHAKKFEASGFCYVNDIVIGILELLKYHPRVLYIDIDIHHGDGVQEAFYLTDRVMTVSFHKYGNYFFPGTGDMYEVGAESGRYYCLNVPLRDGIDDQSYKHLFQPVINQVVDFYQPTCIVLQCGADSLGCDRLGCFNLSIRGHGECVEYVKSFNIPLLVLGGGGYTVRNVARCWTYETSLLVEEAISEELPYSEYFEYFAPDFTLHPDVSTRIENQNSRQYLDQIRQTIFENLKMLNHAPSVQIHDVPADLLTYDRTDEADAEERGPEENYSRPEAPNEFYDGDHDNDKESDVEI
row,SMILES,IC50
1,CCc1c2c(nc3ccc(O)cc13)-c1cc3c(c(=O)n1C2)COC(=O)[C@@]3(CC)OC(=O)CCCCCCCCC(=O)NO,0.78 µM
2,CCc1c2c(nc3ccc(O)cc13)-c1cc3c(c(=O)n1C2)COC(=O)[C@@]3(CC)OC(=O)CNC(=O)CCCCCCC(=O)NO,1.6 µM
3,CCc1c2c(nc3ccc(O)cc13)-c1cc3c(c(=O)n1C2)COC(=O)[C@@]3(CC)OC(=O)CCCCCCCCCC(=O)NO,5.33 µM
4,CCc1c2c(nc3ccc(OC(=O)N4CCN(C(=O)CCCCCCCCCCC(=O)NO)CC4)cc13)-c1cc3c(c(=O)n1C2)COC(=O)[C@]3(O)CC,27.3 µM
5,CCc1c2c(nc3ccc(O)cc13)-c1cc3c(c(=O)n1C2)COC(=O)[C@@]3(CC)OC(=O)CNC(=O)CCCCCCC(=O)O,34.9 µM
6,CCc1c2c(nc3ccc(OC(=O)N4CCN(C(=O)CCCCCCCC(=O)NO)CC4)cc13)-c1cc3c(c(=O)n1C2)COC(=O)[C@]3(O)CC,18.8 µM
7,CCc1c2c(nc3ccc(OC(=O)N4CCN(C(=O)CCCCCC(=O)NO)CC4)cc13)-c1cc3c(c(=O)n1C2)COC(=O)[C@]3(O)CC,12 µM
8,CCc1c2c(nc3ccc(OC(=O)N4CCN(C(=O)CCCCCCCCC(=O)NO)CC4)cc13)-c1cc3c(c(=O)n1C2)COC(=O)[C@]3(O)CC,25.4 µM

# Tested on: not listed separately
# Assay: Half life in human plasma at 50 uM by HPLC analysis
# Format: ADME, cell-free
# Conditions: not given
row,SMILES,half-life at 50 µM
1,CCc1c2c(nc3ccc(O)cc13)-c1cc3c(c(=O)n1C2)COC(=O)[C@@]3(CC)OC(=O)CNC(=O)CCCCCCC(=O)NO,6 h

# Target: T1, Protein deacetylase HDAC6 (Homo sapiens) (UniProt Q9UBN7)
# T1 sequence (whole entry): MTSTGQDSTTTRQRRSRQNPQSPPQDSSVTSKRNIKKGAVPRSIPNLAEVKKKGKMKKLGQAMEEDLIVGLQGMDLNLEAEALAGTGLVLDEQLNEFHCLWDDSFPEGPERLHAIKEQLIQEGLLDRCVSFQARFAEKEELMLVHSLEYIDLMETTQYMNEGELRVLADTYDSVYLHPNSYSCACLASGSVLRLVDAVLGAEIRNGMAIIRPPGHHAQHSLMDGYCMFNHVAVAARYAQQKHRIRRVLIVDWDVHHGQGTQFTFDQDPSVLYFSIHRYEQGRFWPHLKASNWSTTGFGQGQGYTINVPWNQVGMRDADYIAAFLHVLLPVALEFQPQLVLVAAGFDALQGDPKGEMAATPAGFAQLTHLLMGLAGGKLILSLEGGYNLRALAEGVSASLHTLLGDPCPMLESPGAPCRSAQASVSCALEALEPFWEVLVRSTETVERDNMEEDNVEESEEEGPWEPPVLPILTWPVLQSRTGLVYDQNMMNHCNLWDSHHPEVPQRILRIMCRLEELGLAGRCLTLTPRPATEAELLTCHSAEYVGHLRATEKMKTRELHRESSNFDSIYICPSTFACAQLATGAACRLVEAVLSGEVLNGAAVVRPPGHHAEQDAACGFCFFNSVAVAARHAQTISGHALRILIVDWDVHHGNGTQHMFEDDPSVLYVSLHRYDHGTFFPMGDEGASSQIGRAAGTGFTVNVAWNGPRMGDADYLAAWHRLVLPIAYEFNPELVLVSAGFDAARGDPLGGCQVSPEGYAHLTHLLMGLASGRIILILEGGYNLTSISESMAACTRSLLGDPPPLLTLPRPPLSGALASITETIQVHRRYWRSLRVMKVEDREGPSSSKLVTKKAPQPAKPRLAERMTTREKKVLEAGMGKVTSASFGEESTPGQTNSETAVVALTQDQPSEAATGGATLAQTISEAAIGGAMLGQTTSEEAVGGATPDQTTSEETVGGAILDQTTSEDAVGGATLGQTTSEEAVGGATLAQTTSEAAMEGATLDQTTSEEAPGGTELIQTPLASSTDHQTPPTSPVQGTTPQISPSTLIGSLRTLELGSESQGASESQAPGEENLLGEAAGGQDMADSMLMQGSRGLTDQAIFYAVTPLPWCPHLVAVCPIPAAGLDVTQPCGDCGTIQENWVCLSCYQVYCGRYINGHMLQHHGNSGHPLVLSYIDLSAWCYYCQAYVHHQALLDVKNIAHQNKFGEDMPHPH
# Assay: Inhibition of HDAC6 in human HCT116 cells assessed as increase in acetylated tubulin levels at 1 to 10 uM after 24 hrs by Western blot analysis
# Format: cell-based
# Conditions: not given
row,SMILES,inhibition
1,CCc1c2c(nc3ccc(O)cc13)-c1cc3c(c(=O)n1C2)COC(=O)[C@@]3(CC)OC(=O)CNC(=O)CCCCCCC(=O)NO,inactive
2,CCc1c2c(nc3ccc(O)cc13)-c1cc3c(c(=O)n1C2)COC(=O)[C@@]3(CC)OC(=O)CNC(=O)CCCCCCC(=O)O,Active

# Tested on: HCT-116
# Assay: Antiproliferative activity against human HCT116 cells after 72 hrs by SRB assay
# Format: functional, cell-based
# Conditions: HCT-116, 72 h
row,SMILES,IC50
1,CCc1c2c(nc3ccc(O)cc13)-c1cc3c(c(=O)n1C2)COC(=O)[C@@]3(CC)OC(=O)CNC(=O)CCCCCCC(=O)NO,0.0305 µM
2,CCc1c2c(nc3ccc(O)cc13)-c1cc3c(c(=O)n1C2)COC(=O)[C@@]3(CC)OC(=O)CNC(=O)CCCCCCC(=O)O,0.0232 µM

# Tested on: not listed separately
# Assay: Stability of the compound in PBS at pH 6 at 50 uM by HPLC analysis
# Format: physicochemical
# Conditions: buffer, pH 6, 50 µM
row,SMILES,Stability
1,CCc1c2c(nc3ccc(O)cc13)-c1cc3c(c(=O)n1C2)COC(=O)[C@@]3(CC)OC(=O)CNC(=O)CCCCCCC(=O)NO,Unstable

# Target: T2, Protein deacetylase HDAC6 (Homo sapiens, UniProt Q9UBN7)
# T2 sequence (Q9UBN7 whole entry): T1 sequence (whole entry)
# Assay: Inhibition of recombinant human HDAC6 expressed in baculovirus infected High5 insect cells using Boc-Lys (epsilon-acetyl)-AMC as substrate after 3 hrs by fluorescence assay
# Conditions: not given
row,SMILES,IC50
1,CCc1c2c(nc3ccc(O)cc13)-c1cc3c(c(=O)n1C2)COC(=O)[C@@]3(CC)OC(=O)CCCCCCCCC(=O)NO,0.32 µM
2,CCc1c2c(nc3ccc(O)cc13)-c1cc3c(c(=O)n1C2)COC(=O)[C@@]3(CC)OC(=O)CNC(=O)CCCCCCC(=O)NO,0.86 µM
3,CCc1c2c(nc3ccc(O)cc13)-c1cc3c(c(=O)n1C2)COC(=O)[C@@]3(CC)OC(=O)CCCCCCCCCC(=O)NO,0.61 µM
4,CCc1c2c(nc3ccc(OC(=O)N4CCN(C(=O)CCCCCCCCCCC(=O)NO)CC4)cc13)-c1cc3c(c(=O)n1C2)COC(=O)[C@]3(O)CC,3.57 µM
5,CCc1c2c(nc3ccc(O)cc13)-c1cc3c(c(=O)n1C2)COC(=O)[C@@]3(CC)OC(=O)CNC(=O)CCCCCCC(=O)O,8.66 µM
6,CCc1c2c(nc3ccc(OC(=O)N4CCN(C(=O)CCCCCCCC(=O)NO)CC4)cc13)-c1cc3c(c(=O)n1C2)COC(=O)[C@]3(O)CC,9.04 µM
7,CCc1c2c(nc3ccc(OC(=O)N4CCN(C(=O)CCCCCCCCC(=O)NO)CC4)cc13)-c1cc3c(c(=O)n1C2)COC(=O)[C@]3(O)CC,7.02 µM

# Target: T1, Protein deacetylase HDAC6 (Homo sapiens)
# Assay: Inhibition of HDAC6 in human A549 cells assessed as increase in acetylated tubulin levels at 1 to 10 uM after 24 hrs by Western blot analysis
# Format: cell-based
# Conditions: not given
row,SMILES,inhibition
1,CCc1c2c(nc3ccc(O)cc13)-c1cc3c(c(=O)n1C2)COC(=O)[C@@]3(CC)OC(=O)CNC(=O)CCCCCCC(=O)NO,inactive
2,CCc1c2c(nc3ccc(O)cc13)-c1cc3c(c(=O)n1C2)COC(=O)[C@@]3(CC)OC(=O)CNC(=O)CCCCCCC(=O)O,Active

# Tested on: A549
# Assay: Antiproliferative activity against human A549 cells after 72 hrs by SRB assay
# Format: functional, cell-based
# Conditions: A549, 72 h
row,SMILES,IC50
1,CCc1c2c(nc3ccc(O)cc13)-c1cc3c(c(=O)n1C2)COC(=O)[C@@]3(CC)OC(=O)CNC(=O)CCCCCCC(=O)NO,0.138 µM
2,CCc1c2c(nc3ccc(O)cc13)-c1cc3c(c(=O)n1C2)COC(=O)[C@@]3(CC)OC(=O)CNC(=O)CCCCCCC(=O)O,0.111 µM

# Tested on: not listed separately
# Assay: Half life in mouse plasma at 50 uM by HPLC analysis
# Format: ADME, cell-free
# Conditions: not given
row,SMILES,half-life at 50 µM
1,CCc1c2c(nc3ccc(O)cc13)-c1cc3c(c(=O)n1C2)COC(=O)[C@@]3(CC)OC(=O)CNC(=O)CCCCCCC(=O)NO,1 h

# Target: Histone deacetylase 1 (Homo sapiens, UniProt Q13547)
# Sequence (Q13547 whole entry): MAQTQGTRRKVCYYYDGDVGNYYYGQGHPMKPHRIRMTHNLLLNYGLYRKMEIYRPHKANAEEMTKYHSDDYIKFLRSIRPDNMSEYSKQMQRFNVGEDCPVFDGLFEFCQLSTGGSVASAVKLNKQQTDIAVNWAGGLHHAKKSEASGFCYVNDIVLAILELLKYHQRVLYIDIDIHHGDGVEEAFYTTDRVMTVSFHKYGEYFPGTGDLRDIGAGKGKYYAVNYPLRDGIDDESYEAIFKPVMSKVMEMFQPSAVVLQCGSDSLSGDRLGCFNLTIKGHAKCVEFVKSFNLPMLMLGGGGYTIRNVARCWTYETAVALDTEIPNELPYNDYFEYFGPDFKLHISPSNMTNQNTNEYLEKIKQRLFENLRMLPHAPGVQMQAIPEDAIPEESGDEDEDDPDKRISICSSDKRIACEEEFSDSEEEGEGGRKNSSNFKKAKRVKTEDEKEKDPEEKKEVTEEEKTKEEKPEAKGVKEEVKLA
# Assay: Inhibition of recombinant human HDAC1 expressed in baculovirus infected High5 insect cells using Ac-Lys-Tyr-Lys(epsilon-acetyl)-AMC as substrate after 24 hrs by fluorescence assay
# Conditions: not given
row,SMILES,IC50
1,CCc1c2c(nc3ccc(O)cc13)-c1cc3c(c(=O)n1C2)COC(=O)[C@@]3(CC)OC(=O)CCCCCCCCC(=O)NO,0.71 µM
2,CCc1c2c(nc3ccc(O)cc13)-c1cc3c(c(=O)n1C2)COC(=O)[C@@]3(CC)OC(=O)CNC(=O)CCCCCCC(=O)NO,1.96 µM
3,CCc1c2c(nc3ccc(O)cc13)-c1cc3c(c(=O)n1C2)COC(=O)[C@@]3(CC)OC(=O)CCCCCCCCCC(=O)NO,6.18 µM
4,CCc1c2c(nc3ccc(OC(=O)N4CCN(C(=O)CCCCCCCCCCC(=O)NO)CC4)cc13)-c1cc3c(c(=O)n1C2)COC(=O)[C@]3(O)CC,11 µM
5,CCc1c2c(nc3ccc(O)cc13)-c1cc3c(c(=O)n1C2)COC(=O)[C@@]3(CC)OC(=O)CNC(=O)CCCCCCC(=O)O,27.7 µM
6,CCc1c2c(nc3ccc(OC(=O)N4CCN(C(=O)CCCCCCCC(=O)NO)CC4)cc13)-c1cc3c(c(=O)n1C2)COC(=O)[C@]3(O)CC,19.7 µM
7,CCc1c2c(nc3ccc(OC(=O)N4CCN(C(=O)CCCCCC(=O)NO)CC4)cc13)-c1cc3c(c(=O)n1C2)COC(=O)[C@]3(O)CC,13.6 µM
8,CCc1c2c(nc3ccc(OC(=O)N4CCN(C(=O)CCCCCCCCC(=O)NO)CC4)cc13)-c1cc3c(c(=O)n1C2)COC(=O)[C@]3(O)CC,30.1 µM

# Tested on: not listed separately
# Assay: Half life in PBS at pH 7.4 at 50 uM by HPLC analysis
# Format: physicochemical
# Conditions: not given
row,SMILES,half-life at 50 µM
1,CCc1c2c(nc3ccc(O)cc13)-c1cc3c(c(=O)n1C2)COC(=O)[C@@]3(CC)OC(=O)CNC(=O)CCCCCCC(=O)NO,5 h
